Assay results published in the supplement of paper PMC10307832.

Tests used:
Assay in all cases: relative viability (nuclei count vs DMSO), 5 days (fraction); higher = more cells survive
Axitinib + Alpelisib = compound: CNC(=O)c1ccccc1Sc1ccc2c(/C=C/c3ccccn3)n[nH]c2c1 [Axitinib] + Cc1nc(NC(=O)N2CCC[C@H]2C(N)=O)sc1-c1ccnc(C(C)(C)C(F)(F)F)c1 [Alpelisib] (partner 2 µM)
In short: (§1)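 Nuclei were stained with Hoechst during a one-step fixation (final 0.05% Triton X-100, 1% formaldehyde, 1 ug/ml Hoechst) carried out 5 days after dosing, then counted on 4× images. The cells, lung cancer lines in 1536-well plates, had been dosed by pin tool the day after seeding with one drug alone or a fixed anchor-drug dose plus five library-drug doses (not always all listed) in √10 steps. Relative viability is the nuclei count in treated wells divided by that in vehicle wells, and each value is the median of duplicate plates.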

[1] = compound: CC1=CC=C(C=C1)C(=O)CN2C3=C(CCCC3)SC2=N [Pifithrin_alpha] + C[C@]1(O)C[C@@H](c2nc(-c3ccc4ccc(-c5ccccc5)nc4c3)c3c(N)nccn32)C1 [Linsitinib] (partner 1 µM)
In short: as §1

Axitinib + Dasatinib = compound: CNC(=O)c1ccccc1Sc1ccc2c(/C=C/c3ccccn3)n[nH]c2c1 [Axitinib] + Cc1nc(Nc2ncc(C(=O)Nc3c(C)cccc3Cl)s2)cc(N2CCN(CCO)CC2)n1 [Dasatinib] (partner 0.075 µM)
In short: as §1

[2] = compound: CC1=CC=C(C=C1)C(=O)CN2C3=C(CCCC3)SC2=N [Pifithrin_alpha] + O=C(c1cc(Cc2n[nH]c(=O)c3ccccc23)ccc1F)N1CCN(C(=O)C2CC2)CC1 [Olaparib] (partner 8 µM)
In short: as §1

Row | Cell Line | relative viability (Axitinib + Alpelisib; first compound 0.005 µM) | relative viability (Axitinib + Alpelisib; first compound 0.01581 µM) | relative viability (Axitinib + Alpelisib; first compound 0.05 µM) | relative viability (Axitinib + Alpelisib; first compound 0.1581 µM) | relative viability (Axitinib + Alpelisib; first compound 0.5 µM) | relative viability ([1]; first compound 1 µM) | relative viability ([1]; first compound 3.162 µM) | relative viability ([1]; first compound 10 µM) | relative viability ([1]; first compound 31.62 µM) | relative viability ([1]; first compound 100 µM) | relative viability (Axitinib + Dasatinib; first compound 0.005 µM) | relative viability (Axitinib + Dasatinib; first compound 0.01581 µM) | relative viability (Axitinib + Dasatinib; first compound 0.05 µM) | relative viability (Axitinib + Dasatinib; first compound 0.1581 µM) | relative viability (Axitinib + Dasatinib; first compound 0.5 µM) | relative viability ([2]; first compound 1 µM) | relative viability ([2]; first compound 3.162 µM) | relative viability ([2]; first compound 10 µM) | relative viability ([2]; first compound 31.62 µM) | relative viability ([2]; first compound 100 µM)
1 | NCI-H3122 | 0.753 | 0.719 | 0.843 | 0.711 | 0.792 | 1.07 | 1.06 | 1.03 | 0.879 | 1.08 | 0.881 | 0.819 | 0.895 | 0.724 | 0.735 | 0.635 | 0.48 | 0.511 | 0.291 | 0.389
2 | SK-MES-1 | 0.981 | 0.974 | 1.04 | 0.943 | 1.12 | 1 | 1.01 | 0.93 | 0.737 | 0.921 | 0.42 | 0.435 | 0.446 | 0.382 | 0.622 | 0.479 | 0.493 | 0.292 | 0.241 | 0.373
3 | NCI-H441 | 0.79 | 0.72 | 0.965 | 0.561 | 0.852 | 0.52 | 0.528 | 0.613 | 0.478 | 0.662 | 0.592 | 0.722 | 0.595 | 0.575 | 0.604 | 0.608 | 0.673 | 0.468 |  | 0.542
4 | NCI-H2087 | 1.18 | 1.04 | 0.993 | 1.07 | 1.22 | 0.765 | 1.03 | 0.966 | 0.776 | 0.778 | 0.852 | 1.01 | 0.908 | 0.837 | 0.861 | 0.617 | 0.614 | 0.524 | 0.236 | 0.469
5 | RERF-LC-KJ | 0.87 | 0.767 | 0.842 | 0.77 | 0.876 | 0.885 | 0.769 | 0.745 | 0.727 | 0.631 | 0.853 | 0.898 | 0.998 | 0.822 | 0.904 | 0.779 | 0.4 | 0.215 | 0.178 | 0.175
6 | NCI-H1437 | 1.01 | 1.01 | 1.01 | 0.929 | 1.06 | 1.14 | 1.24 | 0.893 | 0.564 | 0.54 | 0.396 | 0.388 | 0.448 | 0.388 | 0.442 | 0.681 | 0.604 | 0.521 | 0.383 | 0.277
7 | NCI-H1651 | 1.03 | 0.944 | 0.971 | 0.937 | 1.12 | 0.997 | 1.13 | 0.892 | 0.709 | 1.02 | 0.482 | 0.396 | 0.409 | 0.404 | 0.502 | 0.184 | 0.191 | 0.173 | 0.143 | 0.194
8 | PC-14 | 1.02 | 0.931 | 0.94 | 0.893 | 1.05 | 0.975 | 0.979 | 0.941 | 0.764 | 0.743 | 0.247 | 0.227 | 0.297 | 0.257 | 0.314 | 0.253 | 0.319 | 0.218 | 0.188 | 0.111
9 | NCI-H1792 | 0.797 | 0.715 | 0.671 | 0.699 | 0.683 | 0.563 | 0.498 | 0.378 | 0.422 | 0.486 | 0.763 | 0.749 | 0.618 | 0.761 | 0.838 | 0.469 | 0.348 | 0.272 |  | 0.255
10 | NCI-H1666 | 1.12 | 0.918 | 0.942 | 1.05 | 1.1 | 0.69 | 0.599 | 0.534 | 0.521 | 0.448 | 0.836 | 0.838 | 0.825 | 0.88 | 0.829 | 0.72 | 0.673 | 0.657 | 0.641 | 0.648
11 | NCI-H661 | 0.613 | 0.509 | 1.02 | 0.862 | 0.511 | 0.669 | 0.616 | 0.565 | 0.68 | 0.598 | 1.01 | 0.737 | 0.843 | 0.83 | 0.927 | 0.777 | 0.882 | 0.656 | 0.601 | 0.669
12 | LK-2 | 1.02 | 0.853 | 0.838 | 0.902 | 0.828 | 0.608 | 0.728 | 0.544 |  | 0.646 | 0.333 | 0.305 | 0.343 | 0.282 | 0.223 | 0.554 | 0.833 | 0.933 |  | 0.776
13 | PC-3 [JPC-3] | 1.09 |  | 1 | 1.04 | 1.12 | 0.964 | 0.947 | 0.862 | 0.853 | 0.923 | 1.07 | 1.01 | 1.02 | 1 | 1.01 |  | 1.11 |  | 0.564 | 0.764
14 | LC-2-ad | 0.942 | 0.859 | 0.83 | 0.907 | 0.903 | 0.849 | 0.846 | 0.804 | 0.547 | 0.767 | 0.526 | 0.572 | 0.425 | 0.546 | 0.486 | 0.756 | 0.739 | 0.683 | 0.444 | 0.555
15 | NCI-H460 | 0.569 | 0.571 | 0.54 | 0.549 | 0.821 | 0.764 | 0.795 | 0.906 |  | 0.563 | 0.429 | 0.515 | 0.607 | 0.49 | 0.441 | 0.456 | 0.343 | 0.257 |  | 0.21
16 | NCI-H1395 | 1.22 | 1.02 | 1.21 | 1.07 | 1.18 |  | 1.05 | 1.03 | 0.638 | 0.974 | 0.403 | 0.425 | 0.39 | 0.404 | 0.397 |  | 0.443 | 0.442 |  | 0.432
17 | NCI-H727 | 0.612 | 0.524 | 1.43 | 0.538 | 0.783 | 0.295 | 0.312 | 0.271 | 0.293 | 0.217 | 0.403 | 0.371 | 0.436 | 0.465 | 0.347 | 0.71 | 0.843 | 0.68 | 0.583 | 0.597
